In US9802943B2, “HIV inhibiting bicyclic pyrimidine derivatives” (Janssen Sciences Ireland UC, priority 2004, dated 2017):

Columns and labels:
Type in all cases: cell-based
[1] = test system: Strain C (mutation L100I in HIV reverse transcriptase); test: cellular antiviral assay, HIV mutant strain C; details: for pEC50 C: strain C, L100I; for EC50: Human immunodeficiency virus 1, read-out: pEC50 C (converted)
Protocol: (§1) Because of the increasing emergence of drug resistant HIV strains, the present compounds were tested for their potency against clinically isolated HIV strains harboring several mutations. These mutations are associated with resistance to reverse transcriptase inhibitors and result in viruses that show various degrees of phenotypic cross-resistance to the currently commercially available drugs such as for instance AZT and delavirdine.
(§2) The antiviral activity of the compound of the present invention has been evaluated in the presence of wild type HIV and HIV mutants bearing mutations at the reverse transcriptase gene. The activity of the compounds is evaluated using a cellular assay and the residual activity is expressed in pEC50 values. The columns IIIB and A-G in the table list the pEC50 values against various strains IIIB, A-G. • Strain IIIB is wild type HIV-LAI strain • Strain A contains mutation Y181C in HIV reverse transcriptase, • Strain B contains mutation K103N in HIV reverse transcriptase, • Strain C contains mutation L100I in HIV reverse transcriptase, • Strain D contains mutation Y188L in HIV reverse transcriptase, • Strain E contains mutations L100I and K103N in HIV reverse transcriptase, • Strain F contains mutations K103N and Y181C in HIV reverse transcriptase, and • Strain G contains mutations L100I, K103N, Y181C, V179I E138G L214F, V278V/I • and A327A/V in HIV reverse transcriptase.

[2] = test system: Strain G (mutations L100I, K103N, Y181C, V179I E138G L214F, V278V/I and A327A/V in HIV reverse transcriptase); test: cellular antiviral assay, HIV mutant strain G; details: for pEC50 G: strain G, L100I, K103N, Y181C, V179I E138G L214F, V278V/I and A327A/V; for EC50: Human immunodeficiency virus 1, read-out: pEC50 G (converted)
Protocol: as §1, §2

[3] = test system: Strain IIIB (wild type HIV-LAI strain); test: cellular antiviral assay, wild type HIV; details: for pEC50 IIIB: strain IIIB, wild type HIV-LAI; for EC50: Human immunodeficiency virus 1, IIIB, read-out: pEC50 IIIB (converted)
Protocol: as §1, §2

[4] = test system: Strain A (mutation Y181C in HIV reverse transcriptase); test: cellular antiviral assay, HIV mutant strain A; details: for pEC50 A: strain A, Y181C; for EC50: Human immunodeficiency virus 1, read-out: pEC50 A (converted)
Protocol: as §1, §2

[5] = test system: Strain F (mutations K103N and Y181C in HIV reverse transcriptase); test: cellular antiviral assay, HIV mutant strain F; details: for pEC50 F: strain F, K103N and Y181C; for EC50: Human immunodeficiency virus 1, read-out: pEC50 F (converted)
Protocol: as §1, §2

[6] = test system: Strain B (mutation K103N in HIV reverse transcriptase); test: cellular antiviral assay, HIV mutant strain B; details: for pEC50 B: strain B, K103N; for EC50: Human immunodeficiency virus 1, read-out: pEC50 B (converted)
Protocol: as §1, §2

[7] = test system: Strain D (mutation Y188L in HIV reverse transcriptase); test: cellular antiviral assay, HIV mutant strain D; details: for pEC50 D: strain D, Y188L; for EC50: Human immunodeficiency virus 1, read-out: pEC50 D (converted)
Protocol: as §1, §2

[8] = test system: Strain E (mutations L100I and K103N in HIV reverse transcriptase); test: cellular antiviral assay, HIV mutant strain E; details: for pEC50 E: strain E, L100I and K103N; for EC50: Human immunodeficiency virus 1, read-out: pEC50 E (converted)
Protocol: as §1, §2

Structure (SMILES)	pEC50 C [1]	pEC50 G [2]	pEC50 IIIB [3]	pEC50 A [4]	pEC50 F [5]	pEC50 B [6]	pEC50 D [7]	pEC50 E [8]	EC50 [1]	EC50 [2]	EC50 [3]	EC50 [4]	EC50 [5]	EC50 [6]	EC50 [7]	EC50 [8]
CCc1cc(CCC#N)ccc1N1CCc2c(C)nc(Nc3ccc(C#N)cc3)nc21 [Compound 17]	8.6	5.7	9	8.2	7.2	8.9	7.7	7.8	–	–	–	–	–	–	–	–
N#C/C=C/c1cc(F)c(-n2cnc3cnc(Nc4ccc(C#N)cc4)nc32)c(Cl)c1 [Compound 24]	–	–	–	–	–	–	–	–	0.2 nM	2000 nM	0.1 nM	3.16 nM	12.6 nM	0.1 nM	12.6 nM	6.31 nM
Cc1nc(Nc2ccc(C#N)cc2)nc2c1CCN2c1ccc(C=CC#N)cc1F (mixture of isomers) [Compound 5]	7.8	<4.6	7.7	6.3	–	7.9	6.6	6.9	–	–	–	–	–	–	–	–
CCc1cc(C=CC#N)cc(Br)c1N1CCc2c(C)nc(Nc3ccc(C#N)cc3)nc21 (mixture of isomers) [Compound 6]	8.4	5.5	8.3	7.7	7.5	8.3	7.5	8.3	–	–	–	–	–	–	–	–
COc1cc(/C=C/C#N)cc(C)c1N1CCc2c(C)nc(Nc3ccc(C#N)cc3)nc21 [Compound 8]	8.3	4.9	8.5	7.6	7.2	8.4	7.5	7.6	–	–	–	–	–	–	–	–
CCc1cc(CCC#N)cc(CC)c1N1CCc2c(C)nc(Nc3ccc(C#N)cc3)nc21 [Compound 16]	8.6	5.8	8.2	7.7	7.3	8.2	7	8.1	–	–	–	–	–	–	–	–
Cc1cc(/C=C/C#N)cc(C)c1-n1nnc2cnc(Nc3ccc(C#N)cc3)nc21 [Compound 29]	8.3	5.4	9.1	7.8	–	8.8	7.7	7.1	–	–	–	–	–	–	–	–
Cc1cc(C=CC#N)ccc1N1CCc2c(C)nc(Nc3ccc(C#N)cc3)nc21 (mixture of isomers) [Compound 1]	8.9	5.5	8.4	7.9	7.1	9	7.7	7.8	–	–	–	–	–	–	–	–
Cc1cc(/C=C/C#N)cc(C)c1-n1ccc2c(C)nc(Nc3ccc(C#N)cc3)nc21 [Compound 28]	8.6	5.7	8.5	7.9	7.8	8.5	7.7	8.5	–	–	–	–	–	–	–	–
CCc1cc(C=CC#N)cc(CC)c1N1CCc2c(C)nc(Nc3ccc(C#N)cc3)nc21 (mixture of isomers) [Compound 3]	8.7	5.7	7.9	7.8	7.7	8.5	7.8	8.5	–	–	–	–	–	–	–	–
CCc1nc2cnc(Nc3ccc(C#N)cc3)nc2n1-c1c(C)cc(/C=C/C#N)cc1C [Compound 22]	–	–	–	–	–	–	–	–	316 nM	–	3.98 nM	316 nM	1580 nM	3.98 nM	1580 nM	3160 nM
Cc1nc(Nc2ccc(C#N)cc2)nc2c1CCN2c1c(Cl)cc(C=CC#N)cc1Cl (mixture of isomers) [Compound 7b]	9.1	5.4	9.1	8.1	7.7	9	7.7	8.5	–	–	–	–	–	–	–	–
Cc1cc(C=CC#N)cc(C)c1N1CCc2c(C)nc(Nc3ccc(C#N)cc3)nc21 (mixture of isomers) [Compound 11]	8.8	5.4	8.8	8.2	7.9	9	8.1	8.4	–	–	–	–	–	–	–	–
Cc1cc(/C=C/C#N)cc(C)c1-n1c(-c2ccccc2)nc2cnc(Nc3ccc(C#N)cc3)nc21 [Compound 23]	7.5	5.7	7.7	7.1	6.4	7.6	7.7	6.3	–	–	–	–	–	–	–	–
Cc1cc(CCC#N)cc(C)c1N1CCc2c(C)nc(Nc3ccc(C#N)cc3)nc21 [Compound 15]	–	5.7	9	8.2	8	8.6	7.3	8	–	–	–	–	–	–	–	–
Cc1cc(/C=C/C#N)cc(C)c1-n1c(-c2ccccn2)nc2cnc(Nc3ccc(C#N)cc3)nc21 [Compound 25]	7.2	5.6	8.1	7.5	7.2	7.6	7.5	5.9	–	–	–	–	–	–	–	–
N#C/C=C/c1cc(F)c(-n2c(N)nc3cnc(Nc4ccc(C#N)cc4)nc32)c(Cl)c1 [Compound 27]	–	–	–	–	–	–	–	–	79.4 nM	6310 nM	20 nM	79.4 nM	200 nM	–	501 nM	631 nM
Cc1nc(Nc2ccc(C#N)cc2)nc2c1CCN2c1c(F)cc(/C=C\C#N)cc1Cl [Compound 13]	8.4	5.1	8.4	7.1	7	8.4	7	7.8	–	–	–	–	–	–	–	–
CCc1cc(/C=C/C#N)ccc1N1CCc2c(C)nc(Nc3ccc(C#N)cc3)nc21 [Compound 4]	9	5.1	8.4	8.3	7.6	9	7.9	8.1	–	–	–	–	–	–	–	–
Cc1nc(Nc2ccc(C#N)cc2)nc2c1CCN2c1c(F)cc(C=CC#N)cc1F (mixture of isomers) [Compound 2]	9.3	5.7	9.1	7.9	7.4	9.2	8.4	9.1	–	–	–	–	–	–	–	–
Cc1cc(C=CC#N)cc(Br)c1N1CCc2c(C)nc(Nc3ccc(C#N)cc3)nc21 (mixture of isomers) [Compound 9]	8.7	<4.6	8.9	8.3	7.7	8.4	8.4	7.8	–	–	–	–	–	–	–	–
Cc1cc(/C=C/C#N)cc(C)c1-n1c(N)nc2cnc(Nc3ccc(C#N)cc3)nc21 [Compound 26]	–	–	–	–	–	–	–	–	20 nM	12600 nM	2.51 nM	25.1 nM	63.1 nM	12.6 nM	79.4 nM	126 nM
Cc1cc(CCC#N)ccc1N1CCc2c(C)nc(Nc3ccc(C#N)cc3)nc21 [Compound 14]	8.4	5.5	8.9	7.8	6.9	8.5	7	7.2	–	–	–	–	–	–	–	–
Cc1nc(Nc2ccc(C#N)cc2)nc2c1CCN2c1c(F)cc(/C=C/C#N)cc1Cl [Compound 10]	9.2	5.7	9.2	8.4	7.9	9.1	8	8.7	–	–	–	–	–	–	–	–
